From PMC8950173 (Pharmaceuticals, 2022) come the findings set out here.

This series addresses T1, P-glycoprotein (P-gp) efflux transporter (Mus musculus, UniProt P21447).
T1 construct: from tissue; host or cells: living CD-1 mice, brain / blood-brain barrier
The experiment in a line: P-gp efflux transporter PET study with cyclosporine A pre-treatment. It is filed as in vivo. As to conditions: for initial brain uptake: n = 2. The procedure: For the time of the experiments, female CD-1 mice (n = 6; 8–15 weeks; 29–43 g) were kept in a dedicated climatic chamber with free access to water and food under a 12:12 h dark:light cycle at a constant temperature (24 °C). The animals were anaesthetized (Anaesthesia Unit U-410, agntho’s, Lidingö, Sweden) with isoflurane (2.0%, 300 mL/min) delivered in a 60% oxygen/40% air mixture (Gas Blender 100 Series, MCQ instruments, Rome, Italy) and their body temperature maintained at 37 °C with a thermal bed system. For baseline studies [^18F]BA3 was injected into the tail vein (n = 2; 6.0 ± 0.6 MBq in 150 µL isotonic saline; 9.2 ± 0.7 nmol/kg; Am: 21 GBq/μmol, EOS) followed by a dynamic 60 min PET/MR scan (Mediso nanoScan®, Budapest, Hungary). Permeability-glycoprotein efflux transporter studies consisted in pre-treatment via i.v. injection of cyclosporine A (50 mg/kg in NaCl/DMSO/kolliphor, 7:1:2, v/v; n = 2) or of vehicle (NaCl/DMSO/kolliphor, 7:1:2, v/v; n = 2) 30 min prior to [^18F]BA3 (6.0 ± 0.9 MBq; 4.9 ± 0.7 nmol/kg; Am: 32–37 GBq/μmol, EOS). Each PET image was corrected for random coincidences, dead time, scatter and attenuation (AC), based on a whole body (WB) MR scan. The reconstruction parameters for the list mode data were 3D-ordered subset expectation maximization (OSEM), 4 iterations, 6 subsets, energy window: 400–600 keV, coincidence mode: 1–5, ring difference: 81. The mice were positioned prone in a special mouse bed (heated up to 37 °C), with the head fixed to a mouth piece for the anaesthetic gas supply with isoflurane in 40% air and 60% oxygen. The PET data were collected by a continuous WB scan during the entire investigation. Following the 60 min PET scan a T1 weighted WB gradient echo sequence (TR/TE: 20/6.4 ms, NEX: 1, FA: 25, FOV: 64 × 64 mm, Matrix: 128 × 128, STh: 0.5 mm) was performed for AC and anatomical orientation. […]. The respective brain regions were identified using the mouse brain atlas template Ma-Benveniste-Mirrione-FDG. The activity data are expressed as mean SUV of the overall ROI.

T1 sequence (P21447 whole entry): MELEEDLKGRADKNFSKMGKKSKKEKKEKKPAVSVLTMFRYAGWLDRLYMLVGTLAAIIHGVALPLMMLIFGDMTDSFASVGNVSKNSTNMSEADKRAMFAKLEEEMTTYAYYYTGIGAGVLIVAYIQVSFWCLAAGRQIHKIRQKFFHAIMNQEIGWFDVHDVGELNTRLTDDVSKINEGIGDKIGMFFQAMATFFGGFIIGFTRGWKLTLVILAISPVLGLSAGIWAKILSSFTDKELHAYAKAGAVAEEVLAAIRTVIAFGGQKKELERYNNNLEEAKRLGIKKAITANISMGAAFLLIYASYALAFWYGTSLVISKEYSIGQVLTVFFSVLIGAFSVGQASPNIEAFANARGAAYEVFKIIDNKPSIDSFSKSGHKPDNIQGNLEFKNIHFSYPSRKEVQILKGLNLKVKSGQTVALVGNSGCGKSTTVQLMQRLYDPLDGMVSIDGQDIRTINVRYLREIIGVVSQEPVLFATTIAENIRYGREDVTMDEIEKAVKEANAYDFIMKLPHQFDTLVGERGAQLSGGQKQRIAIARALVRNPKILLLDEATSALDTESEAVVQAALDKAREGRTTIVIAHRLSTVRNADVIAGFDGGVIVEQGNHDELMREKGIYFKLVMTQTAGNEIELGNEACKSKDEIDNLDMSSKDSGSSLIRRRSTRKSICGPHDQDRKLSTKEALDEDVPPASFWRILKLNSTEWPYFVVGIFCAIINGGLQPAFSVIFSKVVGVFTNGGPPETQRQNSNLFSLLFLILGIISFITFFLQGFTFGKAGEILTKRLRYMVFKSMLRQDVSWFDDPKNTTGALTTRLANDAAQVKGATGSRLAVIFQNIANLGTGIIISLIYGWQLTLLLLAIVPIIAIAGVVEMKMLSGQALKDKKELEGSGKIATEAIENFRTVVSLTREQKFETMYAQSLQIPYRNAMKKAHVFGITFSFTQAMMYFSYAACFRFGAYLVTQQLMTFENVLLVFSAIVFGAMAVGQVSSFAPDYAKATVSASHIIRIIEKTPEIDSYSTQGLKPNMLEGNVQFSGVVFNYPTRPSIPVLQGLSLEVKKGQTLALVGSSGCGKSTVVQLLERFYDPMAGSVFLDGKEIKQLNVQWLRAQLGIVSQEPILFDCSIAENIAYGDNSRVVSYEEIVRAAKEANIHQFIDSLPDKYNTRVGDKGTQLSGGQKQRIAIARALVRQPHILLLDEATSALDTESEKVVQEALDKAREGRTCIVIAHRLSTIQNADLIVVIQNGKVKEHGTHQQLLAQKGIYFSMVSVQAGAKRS

In the case of `CC([18F])C(=O)NCc1ccc(C(=O)Nc2cc(-c3ccsc3)ccc2N)cc1` (stereo not shown) [[^18F]BA3], the P-gp substrate status entry (concluded from cyclosporine A pre-administration) was “substrate of P-gp”. In addition, the “increase of initial brain uptake by cyclosporine A” value (cyclosporine A vs vehicle pre-administration) is listed as “about factor two”. The initial brain uptake is listed as 0.42 SUV (pre-administration of cyclosporine A 50 mg/kg i.v. 30 min before tracer) and 0.18 SUV (pre-administration of vehicle 30 min before tracer).
